US8642532B2, “Excipients for protein stabilization” (priority 2007, dated 2014)

Key:
BSA [1] = biological target: T1, BSA (Bos taurus, UniProt P02769); test: Screening of excipients at pH 6.2 for capacity to deter BSA from forming a gel; format: physicochemical, Bovine; settings: for Results, 65° C., 60 minutes: BSA 175 mg/ml
T1 construct: BSA stock solution (35%, in water, 0.85% sodium chloride, from Sigma); purchased Sigma / Sigma Aldrich
Protocol: Various excipients were tested for their capacity to deter BSA from forming a gel, using sucrose as a reference, in malonic acid buffer (25 mM), incubated at 65° C. for 60 minutes. The excipients used were sucrose, 4-formylbenzene-1,3-disulfonic acid, 4-formylbenzoic acid, phenylglyoxylic acid, glyoxylic acid. (Tables 2 through 6).

[2] = biological target: T2, Myoglobin (Horse Skeleton) (Equus caballus, UniProt P68082); test: Inhibition of myoglobin thermal aggregation at 65° C.; format: physicochemical
T2 construct: Myoglobin (Horse Skeleton, Sigma) was made into a stock solution (10 mg/ml); purchased Sigma; host or cells: horse skeletal muscle ('Horse Skeleton' [sic])
Protocol: Myoglobin (Horse Skeleton, Sigma) was made into a stock solution (10 mg/ml) in sodium bicarbonate buffer (0.1 M, pH 9.0). This solution (0.5 ml) was then mixed with various excipient stock solutions (0.10 ml) to provide a series of test samples with the same final myoglobin concentration and varying excipient concentrations ([X]). Then the samples in sealed test tubes were inserted into wells of heating block that was pre-set at 65° C., and the incubation was continued over a period of time, to observe the formation of fibrillation precipitates (PPT).

[3] = biological target: T3, zinc-free recombinant human insulin, NovoRapid, LisPro (Homo sapiens, UniProt P01308); test: Inhibition of insulin fibrillation by glyoxylic acid, rotator at room temperature; format: physicochemical; settings: 20 mM glyoxylic acid, phosphate buffer pH 7.0, room temperature, rotator 12 rotations per minute
T3 construct: A solution of zinc-free recombinant human insulin was prepared in phosphate buffer
Protocol: (§1) A solution of zinc-free recombinant human insulin was prepared in phosphate buffer (50 mM, pH 7.0, no sodium chloride) at concentration of 1.0 mg/ml, containing 0 and 20 mM glyoxylic acid. Commercial NovoRapid (Novo Nordisk, 100 IU/ml) was diluted with phosphate buffer to 25 IU/ml, with and without glyoxylic acid (0 or 20 mM). Humalog 25 (100 IU/ml, Eli Lilly) was centrifuged to collect the supernatant, and the LisPro concentration was assumed to be 25 IU/ml. Then two LisPro samples were made with and without glyoxylic acid (0 or 20 mM) with assumed final LisPro concentration of 20 IU/ml. Each of the samples (1.0 ml) was transferred into a capped 10 ml test tube, and loaded onto a rotator that was set at 12 rotations per minute at room temperature.

Humulin R (zinc insulin) = biological target: T4, Humulin R (zinc insulin) (Homo sapiens, UniProt P01308); test: Inhibition of zinc insulin fibrillation by glyoxylic acid, rotator at room temperature; format: physicochemical; settings: containing glyoxylic acid, conditions as in Example 11, rotator
T4 construct: purchased
Protocol: as §1, with “temperature. […] Conditions were as in Example 11 above, but using commercial Humulin R (100 IU/ml).” for “temperature.”

BSA [4] = biological target: T1, BSA; test: Inhibition of BSA thermal aggregation (gel/solid formation) at 65° C. over 60 min, phosphate buffer; format: physicochemical, Bovine
Protocol: […] All samples were inserted into wells of heating block that was preset at 65° C.
Ten microliter of the above clear solutions were each diluted with 1.0 ml of phosphate buffer (pH 7.4), and a reference sample of BSA solutions of 2.5 mg/ml was prepared in the same buffer. Small aliquot of 0.10 ml of all the five diluted samples were analyzed on SEC HPLC (TSK gel G 3000 SW, 5 mm×300 mm), eluted with 50 mM sodium phosphate buffer (pH 7.4) containing 0.85% sodium chloride at flow rate of 1.0 ml/min monitored at 280 nm.

[5] = biological target: T5, Bovine Serum Albumin (BSA) (Bos taurus, UniProt P02769); test: Inhibition of thermal aggregation of BSA, SEC HPLC; format: physicochemical; settings: 65° C., BSA 1.75 mg/ml, excipient 11.25 mg/ml, pH 7.4
T5 construct: BSA stock solution (35%, in water, 0.85% sodium chloride, from Sigma); purchased Sigma / Sigma Aldrich
Protocol: A 0.050 ml of BSA stock solution (35%, in water, 0.85% sodium chloride, from Sigma) was diluted into 0.450 ml of sodium phosphate buffer (50 mM, pH 7.4, 0.85% sodium chloride) to give a BSA solution at concentration of 35 mg/ml. An excipient, 2-formylbenzenesulfonic acid, sodium salt (Aldrich, 75%), was made into a solution in water (HPLC grade) at concentration of 75 mg/ml, and its pH was adjusted to 8 using dilute hydrochloric acid.
An aliquot of 0.050 ml of the above stock BSA solution (35 mg/ml) was diluted into PBS buffer (pH 7.4, 0.80 ml), and 0.15 ml of the excipient solution was added to it to make a BSA concentration of 1.75 mg/ml, and the excipient of 11.25 mg/ml. A separate sample was prepared without the addition of the excipient. Both samples in capped glass tubes are incubated at 65° C. […] […] SEC column: TSK gel G3000 SW, 7.5×300 mm, Tosoh Biosciences, part number 05789. Mobile phase: 50 mM phosphate buffer, pH 7.4, 0.85% sodium chloride. Flow rate: 1.0 ml/min. Detection: 280 nm Instrument: BuckChrom BLC-20.

BSA [6] = biological target: T1, BSA; test: Reduction of aggregation of BSA induced by t-butanol, SEC HPLC; format: physicochemical, Bovine; settings: BSA precipitated with t-butanol, re-dissolved in PBS
Protocol: To three separate test tubes containing 0.050 ml of BSA (35%, 0.85% sodium chloride) and 0.050 ml of phosphate buffer (50 mM, pH 7.4), were respectively added 0.010 ml of water, 0.010 mll of 2-formylbenzenesulfonic acid sodium salt (75 mg/ml, pH 8), and 0.010 ml of pyridoxal phosphate (100 mg/ml, pH 7.4). To each of the three tubes were then added 0.50 ml of PEG solution (75%, molecular weight 3400) followed by centrifugation to give some precipitate. The three supernatants were collected to have BSA at saturated concentrations, and to them were separately added 0.50 ml of t-butanol to have more BSA precipitates after centrifugation. The crops of precipitates from t-butanol were washed with t-butanol twice (0.75 ml each) and re-dissolved in PBS buffer (50 mM sodium phosphate, pH 7.4, 0.85% sodium chloride) for SEC HPLC analysis. Plain BSA produced about 75% of aggregates, the sample with 2-formylbenzenesulfonic acid produced about 60% of aggregates, the sample with pyridoxal phosphate produced less than 50% of aggregates.

[7] = pH 9.0, 5 weeks, one cell for all [X] of the excipient
[8] = pH 9.0, 4 days, one cell for all [X] of the excipient
[9] = pH 9.0, 1 days, one cell for all [X] of the excipient
[10] = pH 9.0, 2 days, one cell for all [X] of the excipient
[11] = malonate 25 mM pH 6.2, excipient 9.4 mg/ml
[12] = malonate 25 mM pH 6.2, excipient 18.8 mg/ml
[13] = malonate 25 mM pH 6.2, excipient 37.5 mg/ml

T2 sequence (P68082 whole entry): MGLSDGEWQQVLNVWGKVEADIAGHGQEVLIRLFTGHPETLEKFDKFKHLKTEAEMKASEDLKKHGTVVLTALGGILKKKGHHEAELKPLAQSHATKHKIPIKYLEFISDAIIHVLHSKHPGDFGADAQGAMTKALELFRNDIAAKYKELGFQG
T1 sequence (P02769 25-607): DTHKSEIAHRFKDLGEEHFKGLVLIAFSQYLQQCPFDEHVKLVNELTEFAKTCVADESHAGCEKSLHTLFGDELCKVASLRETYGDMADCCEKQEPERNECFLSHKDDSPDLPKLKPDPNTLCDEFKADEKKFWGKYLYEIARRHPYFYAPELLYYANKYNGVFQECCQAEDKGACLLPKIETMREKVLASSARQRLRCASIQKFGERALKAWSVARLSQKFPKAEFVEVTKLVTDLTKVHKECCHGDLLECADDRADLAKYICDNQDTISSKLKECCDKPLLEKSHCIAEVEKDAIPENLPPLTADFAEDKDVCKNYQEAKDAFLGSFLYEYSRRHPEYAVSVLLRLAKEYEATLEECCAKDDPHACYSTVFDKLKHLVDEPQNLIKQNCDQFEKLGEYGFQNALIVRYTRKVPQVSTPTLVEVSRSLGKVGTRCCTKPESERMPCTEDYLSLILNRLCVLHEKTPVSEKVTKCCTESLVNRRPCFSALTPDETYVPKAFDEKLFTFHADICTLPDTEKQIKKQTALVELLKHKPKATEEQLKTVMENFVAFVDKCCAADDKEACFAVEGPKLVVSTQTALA
T5 sequence (P02769 25-607): as above
T3 sequence (P01308 25-54 limits assumed): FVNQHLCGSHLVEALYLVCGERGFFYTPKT
T3 sequence (P01308 90-110 limits assumed): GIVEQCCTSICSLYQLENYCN
T4 sequence (P01308 25-54 limits assumed): as the sequence (P01308 25-54 limits assumed) above

O=CC(=O)O [Glyoxylic Acid]
Results, 65° C., 60 minutes (BSA [1]; malonate 25 mM pH 6.2, excipient 5.8 mg/ml): Clear
Results, 65° C., 60 minutes (BSA [1]; malonate 25 mM pH 6.2, excipient 11.5 mg/ml): Clear
Results, 65° C., 60 minutes (BSA [1]; malonate 25 mM pH 6.2, excipient 23 mg/ml): Clear
Formation of fibrillation precipitates (PPT) [2, 7]: Precipitate
Formation of fibrillation precipitates (PPT) ([2]; pH 9.0, 1 days, higher part of [X] 16.7/41.7/83.3 mM (cell span not shown)): Clear
Formation of fibrillation precipitates (PPT) ([2]; pH 9.0, 1 days, lower part of [X] 16.7/41.7/83.3 mM (cell span not shown)): PPT
Formation of fibrillation precipitates (PPT) ([2]; pH 9.0, 2 days, higher part of [X] 16.7/41.7/83.3 mM (cell span not shown)): Clear
Formation of fibrillation precipitates (PPT) ([2]; pH 9.0, 2 days, lower part of [X] 16.7/41.7/83.3 mM (cell span not shown)): PPT
Formation of fibrillation precipitates (PPT) [2, 8]: Precipitate
Appearance of insulin solution (fibrillation) [3]: stayed in clear solutions beyond four weeks
Appearance of Humulin R solution (fibrillation) (Humulin R (zinc insulin)): remained clear six days before turning cloudy

O=Cc1ccc(S(=O)(=O)O)cc1S(=O)(=O)O [4-Formyl-1,3-benzenedisulfonic Acid, 4-Formyl-1,3-benzenedisulfonic acid]
Results, 65° C., 60 minutes (BSA [4]; BSA 262.5 mg/ml, phosphate 25 mM pH 7.4, excipient 12.5 mg/ml): Clear
Results, 65° C., 60 minutes (BSA [4]; BSA 262.5 mg/ml, phosphate 25 mM pH 7.4, excipient 12.5 mg/ml, listed as 4-Formyl-1,3-benzenedisulfonic acid): prevents BSA (262 mg/ml) from turning into gellified solid
Results, 65° C., 60 minutes (BSA [4]; BSA 262.5 mg/ml, phosphate 25 mM pH 7.4, excipient 25 mg/ml): Clear
Results, 65° C., 60 minutes (BSA [4]; BSA 262.5 mg/ml, phosphate 25 mM pH 7.4, excipient 50 mg/ml): Clear
Results, 65° C., 60 minutes (BSA [4]; repeated at pH 6.8, excipient 12.5 mg/ml): remained as clear solution
Results, 65° C., 60 minutes (BSA [1]; malonate 25 mM pH 6.2, excipient 7.1 mg/ml): Clear
Results, 65° C., 60 minutes (BSA [1]; malonate 25 mM pH 6.2, excipient 14.4 mg/ml): Clear
Results, 65° C., 60 minutes (BSA [1]; malonate 25 mM pH 6.2, excipient 28.8 mg/ml): Clear
Rank in deterring myoglobin from fibrillation (summary in words) ([2]; pH 9.0): best among this group
Formation of fibrillation precipitates (PPT) [2, 7]: Clear
Formation of fibrillation precipitates (PPT) [2, 9]: Clear
Formation of fibrillation precipitates (PPT) [2, 10]: Clear
Formation of fibrillation precipitates (PPT) [2, 8]: Clear

O=Cc1ccc(C(=O)O)cc1 [4-Formylbenzoic acid]
Results, 65° C., 60 minutes (BSA [1]; [11]): Clear
Results, 65° C., 60 minutes (BSA [1]; [12]): Clear
Results, 65° C., 60 minutes (BSA [1]; [13]): Clear

O=Cc1cc(C(=O)O)ccc1O [3-Formyl-4-hydroxylbenzoic Acid]
Formation of fibrillation precipitates (PPT) [2, 7]: Precipitate
Formation of fibrillation precipitates (PPT) [2, 9]: Precipitate
Formation of fibrillation precipitates (PPT) [2, 10]: Precipitate
Formation of fibrillation precipitates (PPT) [2, 8]: Precipitate

O=C(O)C(=O)c1ccccc1 [Phenylglyoxylic Acid]
Results, 65° C., 60 minutes (BSA [1]; [11]): Clear
Results, 65° C., 60 minutes (BSA [1]; [12]): Clear
Results, 65° C., 60 minutes (BSA [1]; [13]): Clear
Formation of fibrillation precipitates (PPT) [2, 7]: Precipitate
Formation of fibrillation precipitates (PPT) [2, 9]: Precipitate (PPT)
Formation of fibrillation precipitates (PPT) [2, 10]: Precipitate
Formation of fibrillation precipitates (PPT) [2, 8]: Precipitate

OC[C@H]1O[C@@](CO)(O[C@H]2O[C@H](CO)[C@@H](O)[C@H](O)[C@H]2O)[C@@H](O)[C@@H]1O [Sucrose, sucrose, reference compound]
Results, 65° C., 60 minutes (BSA [1]; malonate 25 mM pH 6.2, excipient 75 mg/ml): Pale Gel
Results, 65° C., 60 minutes (BSA [1]; malonate 25 mM pH 6.2, excipient 125 mg/ml): Pale Gel
Results, 65° C., 60 minutes (BSA [1]; malonate 25 mM pH 6.2, excipient 175 mg/ml): Gel
Power to prevent BSA from turning into gel or solid (summary in words) (BSA [1]; pH 6.2, 65° C., 60 minutes, all concentrations tested): does not have strong power to prevent BSA from turning into gel or solid

O=Cc1ccccc1S(=O)(=O)[O-].[Na+] [2-formylbenzenesulfonic acid, 2-formylbenzenesulfonic acid, sodium salt]
BSA aggregation on SEC HPLC ([5]; 40 minutes): no significant change of BSA
BSA aggregation on SEC HPLC ([5]; 60 minutes): aggregates started to show up in an insignificant amount
Aggregates produced (BSA [6]): about 60%
